The target of one test is Helios (Homo sapiens, UniProt Q96SW2+Q9UKS7). Kind of test: Helios Cellular Degradation Assay (Helios readout). It is filed as cell-based. Set-up: endogenous in cells; host or cells: Jurkat. The note with it: Jurkat cells, 72 h incubation, Helios-PE antibody staining, flow cytometry; read-out: Helios Jurkat IC50. In short, it runs like this:
(§1)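 Jurkat cells (80,000/well, RPMI+10% FBS) were treated with compound for 72 h at 37° C. After fixation and permeabilization they were stained with fluorescent antibodies to Helios, Ikaros and Aiolos. Intracellular protein levels were quantified by flow cytometry.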

Another test has as its target Ikaros (Homo sapiens, UniProt Q13422+Q96SW2). Kind of test: Helios Cellular Degradation Assay (Ikaros readout). As to conditions: Jurkat cells, 72 h incubation, Ikaros-Alexa488 antibody staining, flow cytometry; read-out: Ikaros Jurkat IC50. It is filed as cell-based. Further details: endogenous in cells; host or cells: Jurkat. In short, it runs like this:
as §1
On the technique in general: A flow cytometer gives signals particle by particle.

Sequence of Helios (Q9UKS7 whole entry): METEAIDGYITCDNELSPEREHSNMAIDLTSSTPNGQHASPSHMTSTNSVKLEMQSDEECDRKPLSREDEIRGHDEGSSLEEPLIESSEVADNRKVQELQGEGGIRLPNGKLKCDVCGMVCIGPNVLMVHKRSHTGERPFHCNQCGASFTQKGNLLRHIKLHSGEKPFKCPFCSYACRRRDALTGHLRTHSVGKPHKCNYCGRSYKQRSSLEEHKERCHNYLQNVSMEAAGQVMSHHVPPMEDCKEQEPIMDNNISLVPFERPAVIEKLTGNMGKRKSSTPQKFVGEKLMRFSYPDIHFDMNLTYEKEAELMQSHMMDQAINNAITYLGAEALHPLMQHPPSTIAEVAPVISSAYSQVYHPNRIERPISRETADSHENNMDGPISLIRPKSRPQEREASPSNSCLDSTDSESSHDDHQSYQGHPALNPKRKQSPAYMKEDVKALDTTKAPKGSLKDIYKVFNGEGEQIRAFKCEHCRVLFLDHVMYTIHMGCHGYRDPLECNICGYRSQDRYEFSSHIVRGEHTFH
Sequence of Helios (Q96SW2 whole entry): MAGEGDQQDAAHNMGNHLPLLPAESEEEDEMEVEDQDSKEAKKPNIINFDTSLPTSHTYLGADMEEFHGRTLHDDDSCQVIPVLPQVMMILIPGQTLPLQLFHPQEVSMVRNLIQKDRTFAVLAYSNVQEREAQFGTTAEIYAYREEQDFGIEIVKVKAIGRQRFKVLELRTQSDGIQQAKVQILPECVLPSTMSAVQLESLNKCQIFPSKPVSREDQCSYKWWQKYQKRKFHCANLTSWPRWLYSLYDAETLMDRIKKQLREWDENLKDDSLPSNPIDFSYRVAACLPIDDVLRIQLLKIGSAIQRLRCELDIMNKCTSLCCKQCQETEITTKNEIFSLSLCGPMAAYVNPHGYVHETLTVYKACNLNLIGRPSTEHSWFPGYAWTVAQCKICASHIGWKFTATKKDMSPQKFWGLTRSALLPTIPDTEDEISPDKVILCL
Sequence of Helios (Q16531 whole entry partner): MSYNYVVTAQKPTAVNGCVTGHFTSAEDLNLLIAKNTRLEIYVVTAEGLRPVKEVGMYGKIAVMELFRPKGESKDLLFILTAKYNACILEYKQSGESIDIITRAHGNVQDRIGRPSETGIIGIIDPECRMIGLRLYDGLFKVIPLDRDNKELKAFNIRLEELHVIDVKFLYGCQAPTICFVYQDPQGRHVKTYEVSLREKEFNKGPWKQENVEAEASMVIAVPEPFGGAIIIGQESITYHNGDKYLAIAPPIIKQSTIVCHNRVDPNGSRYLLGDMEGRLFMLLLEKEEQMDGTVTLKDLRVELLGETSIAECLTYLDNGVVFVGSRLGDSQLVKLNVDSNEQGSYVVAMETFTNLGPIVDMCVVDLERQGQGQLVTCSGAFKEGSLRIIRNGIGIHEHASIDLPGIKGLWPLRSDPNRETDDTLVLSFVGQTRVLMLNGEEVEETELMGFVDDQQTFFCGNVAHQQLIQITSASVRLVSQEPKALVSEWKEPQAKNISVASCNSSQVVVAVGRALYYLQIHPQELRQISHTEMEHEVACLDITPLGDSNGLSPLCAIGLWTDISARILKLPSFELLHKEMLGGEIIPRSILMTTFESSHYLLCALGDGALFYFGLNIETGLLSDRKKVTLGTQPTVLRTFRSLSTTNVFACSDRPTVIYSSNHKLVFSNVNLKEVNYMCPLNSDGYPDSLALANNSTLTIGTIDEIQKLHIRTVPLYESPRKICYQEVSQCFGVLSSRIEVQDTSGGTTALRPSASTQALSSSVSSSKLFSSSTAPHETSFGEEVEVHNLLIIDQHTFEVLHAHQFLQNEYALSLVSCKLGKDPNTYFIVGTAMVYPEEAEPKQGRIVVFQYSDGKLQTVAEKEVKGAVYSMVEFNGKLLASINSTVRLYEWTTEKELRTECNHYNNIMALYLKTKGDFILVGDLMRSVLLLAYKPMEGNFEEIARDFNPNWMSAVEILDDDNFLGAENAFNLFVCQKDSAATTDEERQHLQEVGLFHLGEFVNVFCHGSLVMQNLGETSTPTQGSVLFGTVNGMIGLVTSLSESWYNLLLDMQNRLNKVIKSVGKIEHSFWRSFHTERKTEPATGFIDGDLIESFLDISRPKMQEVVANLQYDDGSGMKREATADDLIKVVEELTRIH
Sequence of Ikaros (Q13422 whole entry): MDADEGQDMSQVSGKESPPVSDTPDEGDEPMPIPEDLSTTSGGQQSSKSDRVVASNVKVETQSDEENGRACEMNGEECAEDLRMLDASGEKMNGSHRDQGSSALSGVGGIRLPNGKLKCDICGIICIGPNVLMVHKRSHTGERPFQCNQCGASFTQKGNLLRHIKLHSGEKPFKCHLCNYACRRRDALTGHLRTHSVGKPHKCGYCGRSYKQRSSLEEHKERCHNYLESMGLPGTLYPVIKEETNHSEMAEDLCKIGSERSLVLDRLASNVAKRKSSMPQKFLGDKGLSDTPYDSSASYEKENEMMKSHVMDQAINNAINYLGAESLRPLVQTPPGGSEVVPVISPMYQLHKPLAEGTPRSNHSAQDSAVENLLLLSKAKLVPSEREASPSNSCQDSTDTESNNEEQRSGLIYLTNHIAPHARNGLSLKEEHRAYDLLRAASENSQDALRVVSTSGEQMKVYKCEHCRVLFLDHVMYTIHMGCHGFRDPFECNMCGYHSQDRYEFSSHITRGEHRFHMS
Sequence of Ikaros (Q96SW2 whole entry): as the sequence (Q96SW2 whole entry) above
Sequence of Ikaros (Q16531 whole entry partner): as the sequence (Q16531 whole entry partner) above

Take `Nc1cc(N2CCN(Cc3ccccc3)CC2)cc(-c2ccc3c(c2)CN(C2CCC(=O)NC2=O)C3=O)n1` (stereo not shown) [Example 184, 3-(5-(6-amino-4-(4-benzylpiperazin-1-yl)pyridin-2-yl)-1-oxoisoindolin-2-yl) piperidine-2,6-dione]: the DC50 on Helios and on Ikaros was at least 10000 nM each time.
For the compound `Nc1nc(-c2ccc3c(c2)CN([C@H]2CCC(=O)NC2=O)C3=O)cc2ccccc12` [Example 82, (3S)-3-[5-(1-aminoisoquinolin-3-yl)-1-oxo-2,3-dihydro-1H-isoindol-2-yl]piperidine-2,6-dione], the figures for the DC50 at Helios and on Ikaros were 4 nM and at least 20000 nM, respectively.
In the case of `Nc1ccc(C2CC2)c(-c2ccc3c(c2)CN(C2CCC(=O)NC2=O)C3=O)n1` (stereo not shown) [Example 132, 3-[5-(6-amino-3-cyclopropylpyridin-2-yl)-1-oxo-2,3-dihydro-1H-isoindol-2-yl]piperidine-2,6-dione], the results for the DC50 at Helios and on Ikaros were 20 nM and at least 20000 nM, respectively.
For the compound `O=C1CCC(N2Cc3cc(-c4ncc5cc(F)ccc5n4)ccc3C2=O)C(=O)N1` (stereo not shown) [Example 35, 3-[5-(6-fluoroquinazolin-2-yl)-1-oxo-2,3-dihydro-1H-isoindol-2-yl]piperidine-2,6-dione], the DC50 is 53 nM on Helios and above 20000 nM at Ikaros.
For `NC(=O)c1ccc(-c2ccc3c(c2)CN(C2CCC(=O)NC2=O)C3=O)nn1` (stereo not shown) [Example 78, 6-[2-(2,6-dioxopiperidin-3-yl)-1-oxo-2,3-dihydro-1H-isoindol-5-yl]pyridazine-3-carboxamide], in that order: 2800 nM and above 20000 nM.
On the same counts, the results for `O=C1CCC(N2Cc3cc(-c4nc5ccccc5nc4O)ccc3C2=O)C(=O)N1` (stereo not shown) [Example 96, 3-(5-(3-hydroxyquinoxalin-2-yl)-1-oxoisoindolin-2-yl)piperidine-2,6-dione] are 200 nM and at least 20000 nM.
As for `Cc1cc(-c2ccc3c(c2)CN(C2CCC(=O)NC2=O)C3=O)nc(N)n1` (stereo not shown) [Example 143, 3-(5-(2-amino-6-methylpyrimidin-4-yl)-1-oxoisoindolin-2-yl)piperidine-2,6-dione], the results for the DC50 at Helios and on Ikaros were 610 nM and at least 20000 nM, respectively.
On the same counts, the results for `Nc1cc(Cl)cc(-c2ccc3c(c2)CN(C2CCC(=O)NC2=O)C3=O)n1` (stereo not shown) [Example 165, 3-(5-(6-amino-4-chloropyridin-2-yl)-1-oxoisoindolin-2-yl)piperidine-2,6-dione] are 30 nM and at least 20000 nM.
For `O=C1CCC(N2Cc3cc(-c4nc(O)cc5c(Cl)cccc45)ccc3C2=O)C(=O)N1` (stereo not shown) [Example 145, 3-(5-(5-chloro-3-hydroxyisoquinolin-1-yl)-1-oxoisoindolin-2-yl)piperidine-2,6-dione], in that order: 10 nM and at least 20000 nM.
For `Nc1ccc(-c2ccc3c(c2)CN(C2CCC(=O)NC2=O)C3=O)nc1N` (stereo not shown) [Example 117, 3-(5-(5,6-diaminopyridin-2-yl)-1-oxoisoindolin-2-yl)piperidine-2,6-dione], in that order: 150 nM and at least 10000 nM.
Regarding `O=C1CCC(N2Cc3cc(-c4cc5ccccc5cn4)ccc3C2=O)C(=O)N1` (stereo not shown) [Example 67, 3-[5-(isoquinolin-3-yl)-1-oxo-2,3-dihydro-1H-isoindol-2-yl]piperidine-2,6-dione], the DC50 was 42 nM at Helios and 3000 nM at Ikaros.
On the same counts, the results for `Cc1nc(-c2ccc3c(c2)CN(C2CCC(=O)NC2=O)C3=O)cc2ccccc12` (stereo not shown) [Example 88, 3-(5-(1-methylisoquinolin-3-yl)-1-oxoisoindolin-2-yl)piperidine-2,6-dione] are 20 nM and at least 20000 nM.
On the same counts, the results for `COc1cccc2c(-c3ccc4c(c3)CN(C3CCC(=O)NC3=O)C4=O)nc(N)cc12` (stereo not shown) [Example 54, 3-[5-(3-Amino-5-methoxyisoquinolin-1-yl)-1-oxo-2,3-dihydro-1H-isoindol-2-yl]piperidine-2,6-dione] are 40 nM and 5000 nM.
For `Nc1cn2nc(-c3ccc4c(c3)CN(C3CCC(=O)NC3=O)C4=O)ccc2n1` (stereo not shown) [Example 65, 3-(5-{2-aminoimidazo[1,2-b]pyridazin-6-yl}-1-oxo-2,3-dihydro-1H-isoindol-2-yl)piperidine-2,6-dione], in that order: above 20000 nM and above 20000 nM.
In the case of `COc1c(C)cc(-c2ccc3c(c2)CN(C2CCC(=O)NC2=O)C3=O)nc1N` (stereo not shown) [Example 153, 3-(5-(6-amino-5-methoxy-4-methylpyridin-2-yl)-1-oxoisoindolin-2-yl)piperidine-2,6-dione], the values for the DC50 on Helios and at Ikaros were 70 nM and at least 10000 nM, respectively.
For `Nc1cc2ccccc2c(-c2ccc3c(c2)CN(C2CCC(=O)NC2=O)C3=O)n1` (stereo not shown) [Example 25, 3-[5-(3-aminoisoquinolin-1-yl)-1-oxo-2,3-dihydro-1H-isoindol-2-yl]piperidine-2,6-dione], in that order: 48 nM and 8400 nM.
On the same counts, the results for `N#Cc1cc(C2CC2)c(N)nc1-c1ccc2c(c1)CN(C1CCC(=O)NC1=O)C2=O` (stereo not shown) [Example 182, 6-amino-5-cyclopropyl-2-(2-(2,6-dioxopiperidin-3-yl)-1-oxoisoindolin-5-yl) nicotinonitrile] are 70 nM and at least 10000 nM.
For `O=C1CCC(N2Cc3cc(-c4cc5cc[nH]c5nn4)ccc3C2=O)C(=O)N1` (stereo not shown) [Example 6, 3-(1-oxo-5-{7H-pyrrolo[2,3-c]pyridazin-3-yl}-2,3-dihydro-1H-isoindol-2-yl)piperidine-2,6-dione], in that order: 140 nM and above 20000 nM.
Take `Cc1cc(-c2ccc3c(c2)CN(C2CCC(=O)NC2=O)C3=O)nc2ccccc12` (stereo not shown) [Example 24, 3-[5-(4-methylquinolin-2-yl)-1-oxo-2,3-dihydro-1H-isoindol-2-yl]piperidine-2,6-dione]: the DC50 on Helios was 9 nM; at Ikaros it was above 20000 nM.
On the same counts, the results for `N#Cc1ccnnc1-c1ccc2c(c1)CN(C1CCC(=O)NC1=O)C2=O` (stereo not shown) [Example 76, 3-(2-(2,6-dioxopiperidin-3-yl)-1-oxoisoindolin-5-yl)pyridazine-4-carbonitrile] are above 20000 nM and above 20000 nM.
On the same counts, the results for `Nc1nc(-c2ccc3c(c2)CN(C2CCC(=O)NC2=O)C3=O)c2nc[nH]c2n1` (stereo not shown) [Example 43, 3-[5-(2-amino-9H-purin-6-yl)-1-oxo-2,3-dihydro-1H-isoindol-2-yl]piperidine-2,6-dione] are above 20000 nM and above 20000 nM.
On the same counts, the results for `CNc1nc(-c2ccc3c(c2)CN(C2CCC(=O)NC2=O)C3=O)cc2ccccc12` (stereo not shown) [Example 50, 3-{5-[1-(Methylamino)isoquinolin-3-yl]-1-oxo-2,3-dihydro-1H-isoindol-2-yl}piperidine-2,6-dione] are 11 nM and above 20000 nM.
Consider `CCOc1c(-c2ccc3c(c2)CN([C@H]2CCC(=O)NC2=O)C3=O)nc(N)c2ccccc12` [Example 84, (3S)-3-[5-(1-amino-4-ethoxyisoquinolin-3-yl)-1-oxo-2,3-dihydro-1H-isoindol-2-yl]piperidine-2,6-dione], for which the results for the DC50 at Helios and at Ikaros were 3 nM and at least 20000 nM, respectively.
With `Cc1cc(O)nc(-c2ccc3c(c2)CN(C2CCC(=O)NC2=O)C3=O)c1` (stereo not shown) [Example 147, 3-(5-(6-hydroxy-4-methylpyridin-2-yl)-1-oxoisoindolin-2-yl)piperidine-2,6-dione], the DC50 on Helios is 310 nM; on Ikaros, at least 10000 nM.
For `O=C1CCC(N2Cc3cc(-c4ccc5c(n4)NCCO5)ccc3C2=O)C(=O)N1` (stereo not shown) [Example 141, 3-(5-(3,4-dihydro-2H-pyrido[3,2-b][1,4]oxazin-6-yl)-1-oxoisoindolin-2-yl)piperidine-2,6-dione], in that order: 80 nM and at least 20000 nM.
In the case of `O=C1CCC(N2Cc3cc(-c4cc5c(cn4)NCC5)ccc3C2=O)C(=O)N1` (stereo not shown) [Example 113, 3-(5-(2,3-dihydro-1H-pyrrolo[2,3-c]pyridin-5-yl)-1-oxoisoindolin-2-yl)piperidine-2,6-dione], the DC50 on Helios is 50 nM; at Ikaros it was at least 10000 nM.
Regarding `O=C1CCC(N2Cc3cc(-c4ccccn4)ccc3C2=O)C(=O)N1` (stereo not shown) [Example 109, 3-(1-oxo-5-(pyridin-2-yl)isoindolin-2-yl) piperidine-2,6-dione], the DC50 at Helios was 610 nM; at Ikaros, at least 10000 nM.
With `Nc1nc(-c2ccc3c(c2)CN(C2CCC(=O)NC2=O)C3=O)cc2ncccc12` (stereo not shown) [Example 57, 3-[5-(5-amino-1,6-naphthyridin-7-yl)-1-oxo-2,3-dihydro-1H-isoindol-2-yl]piperidine-2,6-dione], the results for the DC50 on Helios and on Ikaros were 7 nM and above 20000 nM, respectively.
On the same counts, the results for `O=C1CCC(N2Cc3cc(-c4nc5ccccc5cc4Cl)ccc3C2=O)C(=O)N1` (stereo not shown) [Example 36, 3-[5-(3-chloroquinolin-2-yl)-1-oxo-2,3-dihydro-1H-isoindol-2-yl]piperidine-2,6-dione] are 110 nM and above 20000 nM.
On the same counts, the results for `Cc1ccc2c(-c3ccc4c(c3)CN(C3CCC(=O)NC3=O)C4=O)nccc2c1` (stereo not shown) [Example 23, 3-[5-(6-methylisoquinolin-1-yl)-1-oxo-2,3-dihydro-1H-isoindol-2-yl]piperidine-2,6-dione] are 6 nM and 130 nM.
For `O=C1CCC(N2Cc3cc(-c4ncnc5ccccc45)ccc3C2=O)C(=O)N1` (stereo not shown) [Example 91, 3-(1-oxo-5-(quinazolin-4-yl)isoindolin-2-yl)piperidine-2,6-dione], in that order: 210 nM and at least 20000 nM.
Turning to `O=C1CCC(N2Cc3cc(-c4ccc5c(n4)NCCC5)ccc3C2=O)C(=O)N1` (stereo not shown) [Example 137, 3-[1-oxo-5-(5,6,7,8-tetrahydro-1,8-naphthyridin-2-yl)-2,3-dihydro-1H-isoindol-2-yl]piperidine-2,6-dione], the DC50 at Helios is 10 nM; at Ikaros, at least 10000 nM.

The record behind these values is patent US12570671B2 (BRISTOL-MYERS SQUIBB COMPANY, priority 2020, dated 2026).
